In US20250340565A1, “CD73 INHIBITOR COMPOUNDS” (AdoRx Therapeutics Limited, priority 2022, published 2025):
Where a name gives a salt, the structure may show the parent alone.

Experiments:
[1] = molecular target: CD73 activity in U138-MG cells (Homo sapiens (Human), UniProt P21589); test: U138-MG inhibition assay (inorganic phosphate from AMP, PiColorLock Gold); format: cell-based; settings: 100 μM AMP, 30 min pre-incubation, 1 hour at 37° C.
Experimental: U138-MG cells from ATCC are cultured in DMEM (Gibco 31966) with 10% FBS. Cells are seeded into 96-well culture plates (5,000 cell/well) in 100 μL of media for 24 hr. Cells are washed twice with 200 μL of assay buffer (20 mM HEPES, pH 7.4; 137 mM NaCl; 5.4 mM KCl; 1.3 mM CaCl2; 4.2 mM NaHCO3; 1 mg/mL glucose) to remove residual inorganic phosphate. CD73 inhibitor is added to each well in 100 μl volume and preincubated for 30 mins at 37° C. An equal volume of AMP substrate (Sigma A1572) is added to each well at a final concentration of 100 μM and incubated at 37° C. for 1 hour. Control wells containing cells but lacking added AMP, define the assay signal equivalent to 100% inhibition of CD73 activity. Supernatant is removed for measurement of inorganic phosphate using the PiColorLock Gold kit (Abcam, ab 270004).
The IC50 values of test compounds are determined as the inflection point of the sigmoidal concentration response curve.

CD73 in whole blood = CD73 in whole blood (Homo sapiens (Human), UniProt P21589); test: Whole blood AMP Glo assay; format: cell-based; settings: whole blood of healthy volunteers, 10 μM AMP, 30 min pre-incubation, 15 min at 37° C., levamisole 1.5 mM
Sequence of CD73 in whole blood (P21589 27-574): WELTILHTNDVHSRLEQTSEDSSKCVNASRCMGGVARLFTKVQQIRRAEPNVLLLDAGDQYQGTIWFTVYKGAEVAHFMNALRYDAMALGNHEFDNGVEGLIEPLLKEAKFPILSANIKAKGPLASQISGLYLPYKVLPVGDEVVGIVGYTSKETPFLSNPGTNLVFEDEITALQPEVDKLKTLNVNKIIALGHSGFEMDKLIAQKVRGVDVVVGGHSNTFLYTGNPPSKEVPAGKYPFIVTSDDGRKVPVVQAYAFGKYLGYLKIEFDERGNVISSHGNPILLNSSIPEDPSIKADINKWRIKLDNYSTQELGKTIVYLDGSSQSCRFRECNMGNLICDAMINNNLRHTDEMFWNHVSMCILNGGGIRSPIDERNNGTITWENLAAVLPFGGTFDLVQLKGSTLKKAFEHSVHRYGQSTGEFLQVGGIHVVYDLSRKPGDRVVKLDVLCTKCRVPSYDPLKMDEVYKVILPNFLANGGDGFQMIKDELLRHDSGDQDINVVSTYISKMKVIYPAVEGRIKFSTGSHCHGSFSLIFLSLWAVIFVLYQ
Experimental: Blood is drawn from healthy volunteers by venepuncture and anti-coagulated with Lithium Heparin (10 IU/mi). 150 μl of blood is added to U-bottom polypropylene 96-well assay plates pre-filled with 20 μl of compound dilutions prepared in RPMI also containing the Tissue Non-specific Alkaline Phosphatase inhibitor Levamisole (final assay concentration 1.5 mM). Control wells to define uninhibited CD73 contain DMSO in place of compound. Control wells to define complete stabilization of AMP attributable to CD73 contain LY3475070 (CAS: 2375815-63-5) at 30 μM final assay concentration.
Compounds are pre-incubated with whole blood at 37° C. for 30 minutes. Following this, AMP is added in a 30 μl volume for a final assay concentration of 10 μM, mixed, and the plates are incubated for 15 minutes at 37° C. Final DMSO concentration/well is 0.6% and final volume/well is 200 μL. After incubating with AMP, the plates are placed on ice and then centrifuged at 2000 g for 10 minutes at 4° C. Plasma is removed and then diluted 1:10 with pre-chilled HBSS (Ca2+& Mg2+free) and kept on ice.
The stabilized AMP concentration in diluted plasma is measured using AMP-Glo kit (Promega), in parallel with a standard curve of known AMP concentrations, with a final volume of 40 μl in white flat bottom half-well 96-well plates (Corning). Signal is measured by Luminescence. The IC50 values of test compounds are determined as the inflection point of the sigmoidal concentration response curve.

[2] = molecular target: human (h)CD73 (amino acids Trp27-Lys547) (Homo sapiens, UniProt P21589); test: CD73 inhibition assay (Malachite Green phosphate detection); format: biochemical; settings: 250 pM hCD73, 12.5 μM AMP, 20 min pre-incubation, absorbance 620 nm
Experimental: Compound inhibition of human (h)CD73 (amino acids Trp27-Lys547, R&D Systems 5795-EN-500) enzymatic activity was tested via the Malachite Green Phosphate Detection Kit (R&D DY996). Experiments were performed in 20 μL Tris buffer (25 mM Tris pH 7.5, 5 mM MgCl2, 0.002% Tween20), with 250 pM of hCD73. Test compounds of interest were prepared in a threefold serial dilution in DMSO and added to the assay to give the appropriate final concentration, with the assay DMSO concentration being 1%. Compounds were pre-incubated for 20 minutes with hCD73 in a 384 well clear plate (Greiner 781101), followed by the addition of adenosine monophosphate (AMP) to 12.5 μM. The enzymatic reaction was carried out for 20 min at room temperature. 5 μL of Malachite kit reagent A was added to stop the reaction (contains 3M H2SO4) and after 10 min, 5 μL of Malachite kit reagent B was added (Malachite Green). After 30 min, absorbance at 620 nm was read on a BMG Pherastar FSX.
Data were normalised to measurements in the absence of competing compound (0% inhibition) and in the presence of 10 μM control compound (100% inhibition).

Sequence of CD73 activity in U138-MG cells (P21589 27-574): as above

Compound	IC50 [1]	IC50 (CD73 in whole blood)	IC50 [2]
O=c1[nH]cc(-c2cc3c(N4CCC(CO)C4)ncnc3s2)c(=O)[nH]1 (stereo not drawn) [Example 1, 5-[4-[3-(Hydroxymethyl)pyrrolidin-1-yl]thieno[2,3-d]pyrimidin-6-yl]-1H-pyrimidine-2,4-dione]	2340 nM	8750 nM	715 nM
O=c1[nH]cc(-c2cc3c(N4CCC(CCO)C4)ncnc3s2)c(=O)[nH]1 (stereo not drawn) [Example 1.1, 5-[4-[3-(2-Hydroxyethyl)pyrrolidin-1-yl]thieno[2,3-d]pyrimidin-6-yl]-1H-pyrimidine-2,4-dione]	2310 nM	8760 nM	677 nM
O=c1[nH]cc(-c2cc3c(N4CCC(OCCO)C4)ncnc3s2)c(=O)[nH]1 (stereo not drawn) [Example 1.3, 5-[4-[3-(2-Hydroxyethoxy)pyrrolidin-1-yl]thieno[2,3-d]pyrimidin-6-yl]-1H-pyrimidine-2,4-dione]	717 nM	3160 nM	489 nM
O=c1[nH]cc(-c2cc3c(N4CCC(OCCN5CCCCC5)C4)ncnc3s2)c(=O)[nH]1 (stereo not drawn) [Example 2, 5-[4-[3-[2-(1-Piperidyl)ethoxy]pyrrolidin-1-yl]thieno[2,3-d]pyrimidin-6-yl]-1H-pyrimidine-2,4-dione]	46.1 nM	47 nM	11.1 nM
N#Cc1ccc(OC2CCN(c3ncnc4sc(-c5c[nH]c(=O)[nH]c5=O)cc34)C2)nc1 (stereo not drawn) [Example 3, 6-[1-[6-(2,4-Dioxo-1H-pyrimidin-5-yl)thieno[2,3-d]pyrimidin-4-yl]pyrrolidin-3-yl]oxypyridine-3-carbonitrile]	588 nM	2220 nM	59.6 nM
O=c1[nH]cc(-c2cc3c(N4CCC(OCc5ccccn5)C4)ncnc3s2)c(=O)[nH]1 (stereo not drawn) [Example 4.1, 5-[4-[3-(2-pyridylmethoxy)pyrrolidine-1-yl]thieno[2,3-d]pyrimidin-6-yl]-1H-pyrimidine-2,4-dione formate salt]	428 nM	782 nM	96 nM
CN1CCOC(COC2CN(c3ncnc4sc(-c5c[nH]c(=O)[nH]c5=O)cc34)CC2(F)F)C1 (stereo not drawn) [Example 4.3, 5-[4-[3,3-Difluoro-4-[(4-methylmorpholin-2-yl)methoxy]pyrrolidine-1-yl]thieno[2,3-d]pyrimidin-6-yl]-1H-pyrimidine-2,4-dione formate salt]	498 nM	516 nM	269 nM
CN1CCOC(COC2CCN(c3ncnc4sc(-c5c[nH]c(=O)[nH]c5=O)cc34)C2)C1 (stereo not drawn) [Example 4.4, 5-[4-[3-[(4-Methylmorpholin-2-yl)methoxy]pyrrolidine-1-yl]thieno[2,3-d]pyrimidin-6-yl]-1H-pyrimidine-2,4-dione]	76.6 nM	254 nM	74.3 nM
O=c1[nH]cc(-c2cc3c(N4CC(OCCN5CCCCC5)C(F)(F)C4)ncnc3s2)c(=O)[nH]1 (stereo not drawn) [Example 5, 5-[4-[3,3-Difluoro-4-[2-(1-piperidyl)ethoxy]pyrrolidine-1-yl]thieno[2,3-d]pyrimidin-6-yl]-1H-pyrimidine-2,4-dione formate salt]	179 nM	184 nM	32 nM
O=c1[nH]cc(-c2nc3ncnc(N4CCC(OCCN5CCCCC5)C4)c3s2)c(=O)[nH]1 (stereo not drawn) [Example 6, 5-[7-[3-[2-(1-Piperidyl)ethoxy]pyrrolidin-1-yl]thiazolo[4,5-d]pyrimidin-2-yl]-1H-pyrimidine-2,4-dione]	18.7 nM	27.5 nM	57.3 nM
O=c1[nH]cc(-c2cc3c(N4CCC(OCCN5CCCCC5)C4)ncnc3o2)c(=O)[nH]1 (stereo not drawn) [Example 7, 5-[4-[3-[2-(1-Piperidyl)ethoxy]pyrrolidin-1-yl]furo[2,3-d]pyrimidin-6-yl]-1H-pyrimidine-2,4-dione formate salt]	7.2 nM	12.5 nM	22.8 nM
O=c1[nH]cc(-c2cc3ncnc(N4CCC(OCCN5CCCCC5)C4)c3s2)c(=O)[nH]1 (stereo not drawn) [Example 8, 5-[4-[3-[2-(1-Piperidyl)ethoxy]pyrrolidin-1-yl]thieno[3,2-d]pyrimidin-6-yl]-1H-pyrimidine-2,4-dione]	34.7 nM	50.7 nM	20.1 nM
O=c1[nH]cc(-c2cc3c(N4CCC(OCCN5CCCCC5)C4)ncnn3c2)c(=O)[nH]1 (stereo not drawn) [Example 10, 5-[4-[3-[2-(1-Piperidyl)ethoxy]pyrrolidin-1-yl]pyrrolo[2,1-f][1,2,4]triazin-6-yl]pyrimidine-2,4-diol]	51.9 nM	29.6 nM	20.7 nM

More lines, now with the values ahead:

IC50 [1]	IC50 (CD73 in whole blood)	IC50 [2]	Compound
1120 nM	6990 nM	401 nM	CC1(C)CCN(c2ncnc3sc(-c4c[nH]c(=O)[nH]c4=O)cc23)C1 [Example 2.1, 5-[4-(3,3-Dimethylpyrrolidin-1-yl)thieno[2,3-d]pyrimidin-6-yl]-1H-pyrimidine-2,4-dione]
734 nM	4010 nM	87.3 nM	CC1(C)CN(c2ncnc3sc(-c4c[nH]c(=O)[nH]c4=O)cc23)CC1(F)F [Example 4, 5-[4-(3,3-Difluoro-4,4-dimethyl-pyrrolidin-1-yl)thieno[2,3-d]pyrimidin-6-yl]-1H-pyrimidine-2,4-dione]
22.8 nM	444 nM	25.4 nM	CC1(C)CN(c2ncnc3oc(-c4c[nH]c(=O)[nH]c4=O)cc23)CC1(F)F [Example 7.1, 5-[4-(3,3-Difluoro-4,4-dimethyl-pyrrolidin-1-yl)furo[2,3-d]pyrimidin-6-yl]-1H-pyrimidine-2,4-dione]
5 nM	56 nM		CC1(C)CN(c2ncc(F)n3nc(-c4c[nH]c(=O)[nH]c4=O)cc23)CC1(F)F [Example 25.10, 5-[4-(3,3-difluoro-4,4-dimethyl-pyrrolidin-1-yl)-7-fluoro-pyrazolo[1,5-a]pyrazin-2-yl]-1H-pyrimidine-2,4-dione]
23 nM	200 nM		Cc1cnc(N2CC(C)(C)C(F)(F)C2)c2cc(-c3c[nH]c(=O)[nH]c3=O)nn12 [Example 25.11, 5-[4-(3,3-difluoro-4,4-dimethyl-pyrrolidin-1-yl)-7-methyl-pyrazolo[1,5-a]pyrazin-2-yl]-1H-pyrimidine-2,4-dione]
12 nM	5 nM		O=c1[nH]cc(-c2cc3c(N4CC(O)C(F)(F)C4)ncc(Cl)n3n2)c(=O)[nH]1 (stereo not drawn) [Example 25.13, 5-[7-Chloro-4-(3,3-difluoro-4-hydroxy-pyrrolidin-1-yl)pyrazolo[1,5-a]pyrazin-2-yl]-1H-pyrimidine-2,4-dione]
7 nM	20 nM		COC1CN(c2ncc(Cl)n3nc(-c4c[nH]c(=O)[nH]c4=O)cc23)CC1(F)F (stereo not drawn) [Example 25.14, 5-[7-Chloro-4-(3,3-difluoro-4-methoxy-pyrrolidin-1-yl)pyrazolo[1,5-a]pyrazin-2-yl]-1H-pyrimidine-2,4-dione]
11 nM	78 nM		CC1(C)CCN(c2ncc(Cl)n3nc(-c4c[nH]c(=O)[nH]c4=O)cc23)C1 [Example 25.16, 5-[7-chloro-4-(3,3-dimethylpyrrolidin-1-yl)pyrazolo[1,5-a]pyrazin-2-yl]-1H-pyrimidine-2,4-dione]
39 nM	450 nM		CC1(C)CCN(c2ncc(F)n3nc(-c4c[nH]c(=O)[nH]c4=O)cc23)C1 [Example 25.17, 5-[4-(3,3-dimethylpyrrolidin-1-yl)-7-fluoro-pyrazolo[1,5-a]pyrazin-2-yl]-1H-pyrimidine-2,4-dione]
